Experiments:
[1] = system: bloodstream-form Trypanosoma brucei; experiment: Activity against bloodstream-form Trypanosoma brucei (Alamar Blue growth inhibition); type: cell-based, Trypanosoma brucei (strain 427); settings: for IC50 / IC90: Trypanosoma brucei, bloodstream form; for IC50: concentration that inhibits growth by 50%, read-out: T. brucei IC50; for IC90: concentration that inhibits growth by 90%, read-out: T. brucei IC90; for S.I. (selectivity index): ratio of IC50 values obtained with L6 cells and T. brucei
Method: (§1) Bloodstream form T. brucei (strain 427) were cultured at 37 °C in modified Iscove's medium. Trypanocidal activity was assessed by growing parasites in microtiter plates in the presence of various drug concentrations. […] The plates were incubated for 48 hours at 37 °C and 20 μL Alamar Blue was then added to each well. After an additional overnight incubation, the fluorescence was determined using a Gemini fluorescent plate reader (Molecular Devices). Inhibition of growth was calculated by comparison with control values and IC50 and IC90 values were determined in triplicate using linear regression analysis.

T. cruzi epimastigotes = experiment: Activity against Trypanosoma cruzi epimastigotes (Alamar Blue growth inhibition); type: cell-based, Trypanosoma cruzi (strain CL Brener); settings: CL Brener
Method: as §1, with “Trypanocidal” for “Bloodstream form T. brucei (strain 427) were cultured at 37 °C in modified Iscove's medium. Trypanocidal”, “4 days” for “48 hours”, “28” for “37”, “Blue (Biosource UK Ltd)” for “Blue”, “3 days” for “overnight”

[2] = system: T. cruzi intracellular amastigotes; experiment: microbe, parasite or virus in culture; type: cell-based, Trypanosoma cruzi CL Brener PpyRE9h:mScarlet; settings: Trypanosoma cruzi, 120 h; in HeLa cells, 5 days
Method: Assays were performed in 96-well black (clear bottom) microtitre plates (Corning Inc.). HeLa ^† cells were seeded at 10^4 per well, incubated for 3 days, and then infected with T. cruzi CL Brener PpyRE9h : mScarlet[25] culture form trypomastigotes (1 : 1 multiplicity of infection). After 16 hours, extracellular parasites were removed by washing in growth medium (×3), test compounds were added, and the plates incubated for 5 days. Fluorescence intensities were then determined using a BMG FLUOstar Omega plate reader (ex 545 nm, em 590 nm), and the data analysed using GraphPad Prism 9.0 software. The values were expressed as IC50/90 ± SD and are the mean of triplicate experiments.

[3] = system: L. infantum promastigotes; experiment: Activity against Leishmania infantum promastigotes (resazurin assay); type: cell-based, Leishmania infantum (MHOM/MA/67/ITMAP-263); settings: for IC50: Leishmania infantum, promastigotes, 72 h, 95% CI in brackets
Method: Promastigotes from the L. infantum strain (MHOM/MA/67/ITMAP-263) were cultivated in 5 ml of Schneider's insect medium, which was supplemented with 10% heat-inactivated fetal bovine serum (FBS), 200 U ml^−1 of penicillin/streptomycin, 6 μg ml^−1 of phenol red, and 5 mM of HEPES. The cultures were maintained in an incubator at 27 °C and diluted to a concentration of 2 × 10^5 cells per ml every 5 days. For the assays the parasites used were equivalent to late/log with two or three days of culture.
The efficacy of the compounds against L. infantum promastigotes was evaluated using a resazurin-based assay. Parasites were added to 100 μl of serial dilutions of the compounds in supplemented complete medium at a cell density of 5 × 10^5 ml^−1. As a quality control, a dose–response curve with the antileishmanial drug miltefosine was included in all assays. The final volume of each assay was 200 μl per well, and each condition was tested in duplicate. After a 72-hour incubation under specific conditions for each parasite, 20 μl of a 0.5 mM resazurin solution was added, and the plates were incubated for an additional 4 hours under the same conditions. Fluorescence was measured at 544 nm for excitation and 590 nm for emission using a Synergy 2 Multi-Mode Reader (Biotek, Winooski, VT, USA). Results were expressed as the percentage of parasite growth inhibition compared to controls (untreated parasites) and represent the average of at least three independent experiments. The effect was evaluated by determining the IC50 value (the concentration required to inhibit 50% growth), calculated using non-linear regression curves via GraphPad Prism version 8.1.1 for Windows (GraphPad Software, San Diego, CA, USA).

[4] = Cytotoxicity on THP-1-derived macrophages (MTT assay); type: cell-based; settings: human, THP-1-derived macrophages (PMA-differentiated), value or interval
Method: The THP-1 cell line, a human leukemia line (ATCC® TIB-202™), was cultured in RPMI-1640 medium supplemented with 10% heat-inactivated fetal bovine serum (FBS), 2 mM. L-Glutamine, 100 IU mL^−1 penicillin/streptomycin, and 20 mM HEPES. The cells were maintained in a humidified incubator at 37 °C with 5% CO2. Subculturing was performed every three days, using 20 mL of media at a concentration of 2 × 10^5 cells per mL in a T75 flask. All cell culture reagents were purchased from Lonza Bioscience (Morrisville, NC).
The cytotoxicity of the compounds on THP-1-derived macrophages was evaluated using the colorimetric MTT assay (3-(4,5-dimethylthiazol-2-yl)-2,5-diphenyltetrazolium bromide), as described in Magoulas et al. (2021).[28] THP-1 cells were suspended in complete RPMI medium at a density of 1 × 10^6 cells per mL, and 100 μL of this suspension was seeded into each well of a 96-well plate. The cells were differentiated into macrophages by adding 40 ng mL^−1 of phorbol-myristate 13-acetate (PMA, Sigma, Saint Louis, MI, USA) for 24 hours, followed by replacement with fresh medium for an additional 24 hours. Subsequently, the cells were incubated with 100 μL of various compounds, diluted in complete RPMI medium, at concentrations ranging from 100 to 12.5 μM. Each condition was tested in triplicate. After 72 hours of incubation at 37 °C with 5% CO2, the medium was removed, and 200 μL of a 0.5 mg mL^−1 MTT solution, diluted in RPMI, was added to each well. The plates were incubated for an additional 4 hours. Following this incubation, 160 μL of the medium was removed and replaced with 160 μL of 2-propanol. Absorbance was measured at 570 nm using a Synergy 2 Multi-Mode Reader (Biotek, Winooski, VT, USA). Cytotoxicity was determined by presenting the CC50 (the concentration of the drug that reduces cell viability by 50%) interval or by calculating the CC50 value through non-linear regression analysis using GraphPad Prism version 8.1.1 for Windows (GraphPad Software, San Diego, CA, USA). The results represent the average of at least three independent experiments.

SMILES	IC50 [1] [nM]	IC90 [1] [nM]	S.I. (selectivity index) [1]	IC50 (T. cruzi epimastigotes) [nM]	IC90 (T. cruzi epimastigotes) [nM]	IC50 [2] [nM]	IC90 [2] [nM]	IC50 [3] [µM]	CC50 at 72 h [4] [nM]	SI (promastigotes) CC50/Li IC50 ([3]; THP-1 CC50 / L. infantum promastigote IC50)
O=C(Cc1ccc(C23CC4CC(CC(C4)C2)C3)cc1)NCCn1cnc([N+](=O)[O-])n1 [6b, 2-[4-(1-Adamantyl)phenyl]-N-[2-(3-nitro-1H-1,2,4-triazol-1-yl)ethyl]acetamide]	420 ± 70	1800 ± 200	72	200 ± 30	660 ± 40	1830 ± 700	4290 ± 310	0.49	50000 to 100000	–
O=C(CCc1ccc(C23CC4CC(CC(C4)C2)C3)cc1)NCCn1cnc([N+](=O)[O-])n1 [6c, 3-[4-(1-Adamantyl)phenyl]-N-[2-(3-nitro-1H-1,2,4-triazol-1-yl)ethyl]propanamide]	200 ± 20	320 ± 10	114	450 ± 20	1200 ± 20	1580 ± 70	3230 ± 850	0.42	> 100000	SI > 238
O=C(Cc1ccc(C23CC4CC(CC(C4)C2)C3)cc1)NCCCn1cnc([N+](=O)[O-])n1 [6e, 2-[4-(1-Adamantyl)phenyl]-N-[3-(3-nitro-1H-1,2,4-triazol-1-yl)propyl]acetamide]	240 ± 10	400 ± 10	96	140 ± 10	270 ± 20	2480 ± 310	7080 ± 470	0.31	50000 to 100000	–

From PMC12679539, “Synthesis and evaluation of nitroheterocyclic aromatic adamantane amides with trypanocidal activity. Part II” (RSC Medicinal Chemistry, 2025)
